# According to PMC11277476, “Synthesis and Biological Evaluation of Novel 2-Aroyl Benzofuran-Based Hydroxamic Acids as Antimicrotubule Agents” (International Journal of Molecular Sciences, 2024):
# Columns and labels:
# [1] = tested on: HT-29 cells; assay: In vitro growth inhibition (resazurin, 72 h), HT-29; type: cell-based; details: Homo sapiens, mean ± SE
# [2] = tested on: A549 cells; assay: In vitro growth inhibition (resazurin, 72 h), A549; type: cell-based; details: Homo sapiens, mean ± SE
# [3] = tested on: HeLa cells; assay: In vitro growth inhibition (resazurin, 72 h), HeLa; type: cell-based; details: Homo sapiens, concentration inhibiting tumor cell proliferation by 50%, mean ± SE
# [4] = tested on: MCF-7 cells; assay: In vitro growth inhibition (resazurin, 72 h), MCF-7; type: cell-based; details: Homo sapiens, MCF7, mean ± SE
# [5] = tested on: MDA-MB-231 cells; assay: In vitro growth inhibition (resazurin, 72 h), MDA-MB-231; type: cell-based; details: Homo sapiens, mean ± SE
# [6] = tested on: panel of five human cancer cell lines (HeLa, MDA-MB-231, A549, HT-29, MCF-7); assay: In vitro growth inhibition, range over the panel of five cancer cell lines; details: for IC50: read-out: IC50 values, range over the cancer cell line panel; for GI50: read-out: antiproliferative GI50 values, range over the five tumor lines
# Method: All the cell lines were purchased from the American Type Culture Collection (ATCC, Manassas, VA, USA). Drug stock solutions were prepared for each compound by dissolving them in DMSO at 10 mM.
# Cancer cells were seeded in tissue treated, flat bottom, 384-well plates (Corning, Corning, NY, USA) according to their optimal density, in 27 μL of complete medium per well, using a Microlab STAR 96-CORE liquid handling system (Hamilton Bonaduz, Bonaduz, Switzerland) as described previously [75]. Each compound was tested in a 6-points 2-fold dose–response curve, and each dose was tested in duplicate within each plate, in three independent experiments. The final concentration of DMSO in the wells never exceeded 0.1%, which was the maximum concentration.
# Only plates with acceptable Z-prime quality metrics (Z′ > 0.6) were further analyzed for the drug screening. Raw data were normalized according to the following equation: cell viability (%) = (x − POS)/(NEG − POS) × 100, where x is the relative fluorescence units (RFU) collected from each single well, NEG is the mean of intraplate negative controls (DMSO, corresponding to 100% cell viability), and POS is the mean of intraplate positive controls (Bortezomib 1 μΜ, equal to 0% cell viability).
# [7] = target: T1, human recombinant HDAC8 (Homo sapiens, UniProt Q9BY41); assay: HDAC isoform inhibition, fluorogenic substrate, HDAC8; type: biochemical; details: mean ± SE, read-out: IC50 (µM) hHDAC8
# T1 construct: purchased BPS Bioscience 50008
# T1 sequence (Q9BY41 1-377): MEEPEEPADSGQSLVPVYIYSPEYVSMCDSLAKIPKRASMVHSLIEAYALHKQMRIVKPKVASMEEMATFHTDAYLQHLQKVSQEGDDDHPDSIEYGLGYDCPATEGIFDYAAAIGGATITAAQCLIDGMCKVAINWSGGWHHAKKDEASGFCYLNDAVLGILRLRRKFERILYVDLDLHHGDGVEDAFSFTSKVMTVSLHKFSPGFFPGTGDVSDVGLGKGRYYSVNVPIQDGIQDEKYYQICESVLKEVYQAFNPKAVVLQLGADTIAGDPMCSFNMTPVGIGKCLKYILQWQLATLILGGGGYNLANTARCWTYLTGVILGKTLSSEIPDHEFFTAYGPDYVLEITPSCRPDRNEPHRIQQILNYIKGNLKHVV
# Method: (§1) Further experiments were also carried out to evaluate the inhibitory activities of test compounds on selected HDAC isoforms. […] Following an incubation of 15 min at RT, fluorescence was measured in an EnSight multimodal plate reader (PerkinElmer, Boston, MA, USA) with an excitation wavelength of 360 nm and an emission wavelength of 450 nm.
# [8] = target: T2, human recombinant HDAC1 (Homo sapiens, UniProt Q13547); assay: HDAC isoform inhibition, fluorogenic substrate, HDAC1; type: biochemical; details: mean ± SE, read-out: IC50 (µM) hHDAC1
# T2 construct: purchased BPS Bioscience 50051
# Method: as §1
# [9] = tested on: tubulin (colchicine site); assay: Inhibition of [3H]colchicine binding to tubulin; set-up: species or system bovine; details: tubulin 0.5 µM, [3H]colchicine 5 µM, tested compound 5 µM
# Method: (§2) Bovine brain tubulin was purified as described previously. To evaluate the effects of the compounds on tubulin assembly in vitro [77], varying concentrations were preincubated with 10 μM tubulin in 0.8 M monosodium glutamate (pH 6.6) at 30 °C, and the reaction mixtures were then cooled to 0 °C. After addition of GTP, the mixtures were transferred to 0 °C cuvettes in Beckman Coulter (Brea, CA, USA) DU-7400/DU-7500 recording spectrophotometers equipped with electronic temperature controllers and were warmed to 30 °C, and the assembly of tubulin was observed turbidimetrically. […] Inhibition of colchicine binding to tubulin was measured as described before, except that the reaction mixtures contained 0.5 μM tubulin and 5 μM each of [^3H]colchicine and test compound. Only one DEAE-cellulose filter was used per sample, and filtration was via gravity.
# [10] = target: T3, human recombinant HDAC10 (Homo sapiens, UniProt Q969S8); assay: HDAC isoform inhibition, fluorogenic substrate, HDAC10; type: biochemical; details: mean ± SE, read-out: IC50 (µM) hHDAC10
# T3 construct: purchased BPS Bioscience 50060
# T3 sequence (Q969S8 1-669): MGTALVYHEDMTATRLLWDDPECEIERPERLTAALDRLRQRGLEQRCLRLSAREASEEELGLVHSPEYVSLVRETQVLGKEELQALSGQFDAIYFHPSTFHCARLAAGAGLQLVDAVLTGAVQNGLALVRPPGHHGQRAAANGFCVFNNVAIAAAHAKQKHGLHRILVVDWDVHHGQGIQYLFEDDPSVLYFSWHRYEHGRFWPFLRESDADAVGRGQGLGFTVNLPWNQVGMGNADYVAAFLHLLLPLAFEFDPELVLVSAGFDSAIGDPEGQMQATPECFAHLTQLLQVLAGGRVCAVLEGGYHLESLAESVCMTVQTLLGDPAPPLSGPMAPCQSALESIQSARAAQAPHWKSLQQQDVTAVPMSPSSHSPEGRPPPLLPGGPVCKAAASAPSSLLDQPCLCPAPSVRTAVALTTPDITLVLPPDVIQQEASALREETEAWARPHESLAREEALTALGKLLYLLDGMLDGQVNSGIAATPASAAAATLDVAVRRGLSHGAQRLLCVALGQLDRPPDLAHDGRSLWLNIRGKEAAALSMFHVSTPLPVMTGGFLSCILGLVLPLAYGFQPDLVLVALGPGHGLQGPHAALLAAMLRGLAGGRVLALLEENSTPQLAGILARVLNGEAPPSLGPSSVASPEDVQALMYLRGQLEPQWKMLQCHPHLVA
# Method: as §1
# [11] = target: T4, human recombinant HDAC6 (Homo sapiens, UniProt Q9UBN7); assay: HDAC isoform inhibition, fluorogenic substrate, HDAC6; type: biochemical; details: mean ± SE, read-out: IC50 (µM) hHDAC6
# T4 construct: purchased BPS Bioscience 50056
# T4 sequence (Q9UBN7 1-1215): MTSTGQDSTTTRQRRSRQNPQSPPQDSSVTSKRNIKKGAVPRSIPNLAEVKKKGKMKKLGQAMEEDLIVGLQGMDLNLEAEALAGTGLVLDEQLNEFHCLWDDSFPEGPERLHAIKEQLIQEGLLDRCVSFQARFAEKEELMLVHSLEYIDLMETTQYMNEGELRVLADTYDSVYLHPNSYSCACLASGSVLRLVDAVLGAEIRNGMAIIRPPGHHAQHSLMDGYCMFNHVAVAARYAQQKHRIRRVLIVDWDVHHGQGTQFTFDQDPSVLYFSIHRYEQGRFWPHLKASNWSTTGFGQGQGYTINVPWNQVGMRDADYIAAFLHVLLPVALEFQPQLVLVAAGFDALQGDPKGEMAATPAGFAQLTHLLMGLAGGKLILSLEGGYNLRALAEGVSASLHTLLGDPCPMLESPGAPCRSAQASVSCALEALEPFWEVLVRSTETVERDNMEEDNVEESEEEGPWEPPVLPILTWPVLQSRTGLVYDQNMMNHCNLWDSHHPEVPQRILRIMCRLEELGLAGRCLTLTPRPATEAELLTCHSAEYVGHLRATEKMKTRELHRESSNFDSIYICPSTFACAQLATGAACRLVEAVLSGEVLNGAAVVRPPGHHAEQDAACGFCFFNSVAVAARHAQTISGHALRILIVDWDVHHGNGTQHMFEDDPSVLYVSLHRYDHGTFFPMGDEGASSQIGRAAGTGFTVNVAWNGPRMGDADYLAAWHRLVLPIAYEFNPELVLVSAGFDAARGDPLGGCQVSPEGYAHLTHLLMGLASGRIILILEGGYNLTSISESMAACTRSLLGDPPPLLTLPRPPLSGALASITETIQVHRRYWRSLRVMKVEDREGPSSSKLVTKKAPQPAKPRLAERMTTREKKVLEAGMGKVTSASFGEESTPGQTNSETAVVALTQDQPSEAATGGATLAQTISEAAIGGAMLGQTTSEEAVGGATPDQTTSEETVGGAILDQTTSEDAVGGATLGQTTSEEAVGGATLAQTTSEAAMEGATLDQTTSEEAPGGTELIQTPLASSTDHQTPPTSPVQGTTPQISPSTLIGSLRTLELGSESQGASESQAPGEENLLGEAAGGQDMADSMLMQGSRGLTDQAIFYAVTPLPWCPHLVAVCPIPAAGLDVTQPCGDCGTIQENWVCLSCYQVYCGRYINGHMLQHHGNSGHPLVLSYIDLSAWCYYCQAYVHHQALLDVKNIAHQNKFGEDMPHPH
# Method: as §1
# [12] = tested on: bovine brain tubulin; assay: Inhibition of tubulin polymerization (turbidimetric); type: biochemical; details: tubulin at 10 μM; 20 min incubation at 30 °C; read-out: Tubulin Assembly IC50 ± SD
# Method: as §2
# [13] = tested on: acetylated histone H3 (Ac-H3K9) in HT-29 cells; assay: Western blot of acetylated histone H3 (Ac-H3K9) in HT-29 cells; type: cell-based, human; details: 10 µM, 6 h
# Method: HT-29 cells were treated with selected compounds for 6 h at 10 µM, lysed, and then processed as previously described.
# Antibodies directed against total histone H3 and its acetylated form (Ac-H3K9) were purchased from Cell Signaling Technology, Danvers, Massachusetts, while anti-vinculin antibody was purchased from Santa Cruz Biotechnology. Membranes were visualized using ECL select (GE Healthcare), and images were acquired using the iBright FL1500 Imaging System (Thermo Fisher Scientific, Waltham, MA, USA). Anti-vinculin (1:25,000, Santa Cruz Biotechnology, Dallas, TX, USA) was used as loading controls.
# T2 sequence (Q13547 whole entry, canonical isoform): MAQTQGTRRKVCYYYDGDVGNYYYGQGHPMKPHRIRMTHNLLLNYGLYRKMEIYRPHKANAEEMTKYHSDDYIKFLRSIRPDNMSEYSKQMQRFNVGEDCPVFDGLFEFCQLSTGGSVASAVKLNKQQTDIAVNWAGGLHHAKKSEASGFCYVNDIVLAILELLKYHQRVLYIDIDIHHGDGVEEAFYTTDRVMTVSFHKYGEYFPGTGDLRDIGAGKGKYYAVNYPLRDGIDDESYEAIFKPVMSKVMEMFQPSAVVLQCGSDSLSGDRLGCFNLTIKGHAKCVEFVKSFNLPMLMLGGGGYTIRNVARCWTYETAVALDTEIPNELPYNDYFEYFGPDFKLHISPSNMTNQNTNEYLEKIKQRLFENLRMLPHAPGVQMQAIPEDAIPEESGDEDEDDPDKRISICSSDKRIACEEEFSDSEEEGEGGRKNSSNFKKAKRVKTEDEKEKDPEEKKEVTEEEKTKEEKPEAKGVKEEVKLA
Compound,IC50 [1],IC50 [2],IC50 [3],IC50 [4],IC50 [5],IC50 [7],IC50 [8],Colchicine Binding % Inhibition ± SD [9],IC50 [10],melting point,IC50 [11],IC50 [12],IC50 [6],GI50 [6],"acetylated histone H3 (Ac-H3K9) level, Western blot [13]"
"COc1cc2oc(C(=O)c3cc(OC)c(OC)c(OC)c3)c(C)c2cc1/C=C/C(=O)NO [Compound 6a, (E)-N-Hydroxy-3-(6-methoxy-3-methyl-2-(3,4,5-trimethoxybenzoyl)benzofuran-5-yl)acrylamide]",7.5 ± 0.11 nM,23.5 ± 0.24 nM,5.2 ± 0.03 nM,7 ± 0.2 nM,5 ± 0.04 nM,> 30 µM,,,,,,,5 to 23 nM,5 to 23 nM,
"COc1ccc2c(C)c(C(=O)c3cc(OC)c(OC)c(OC)c3)oc2c1 [TR187, 2-(3′,4′,5′-trimethoxybenzoyl)-3-methyl-6-methoxy benzofuran, reference compound]",35.2 ± 0.82 nM,24 ± 0.44 nM,8.5 ± 0.11 nM,72 ± 4 nM,3.1 ± 0.01 nM,,,,,,,620 nM,3 to 72 nM,,does not show any inhibitory activity towards HDAC even at the cellular level

# Second part, led by results:
IC50 [1],IC50 [2],IC50 [3],IC50 [4],IC50 [5],IC50 [7],IC50 [8],Colchicine Binding % Inhibition ± SD [9],IC50 [10],melting point,IC50 [11],IC50 [12],Compound,IC50 [6],GI50 [6],"acetylated histone H3 (Ac-H3K9) level, Western blot [13]"
29 ± 0.01 nM,43.9 ± 0.55 nM,4 ± 0.01 nM,19 ± 1 nM,26.9 ± 1.74 nM,> 30 µM,> 30 µM,81 ± 4%,> 30 µM,170 to 172 °C,12.5 ± 0.8 µM,420 ± 70 nM,"COc1cc(OC)cc(C(=O)c2oc3cc(OC)c(/C=C/C(=O)NO)cc3c2C)c1 [Compound 6c, (E)-3-(2-(3,5-Dimethoxybenzoyl)-6-methoxy-3-methylbenzofuran-5-yl)-N-hydroxyacrylamide]",,4 to 44 nM,
7.9 ± 0.02 nM,54.2 ± 2.03 nM,6 ± 0.05 nM,33 ± 6 nM,44.7 ± 3.12 nM,> 30 µM,13.4 ± 0.9 µM,86 ± 1%,> 30 µM,100 to 102 °C,17.1 ± 1.2 µM,1100 ± 100 nM,"COc1cccc(C(=O)c2oc3cc(OC)c(/C=C/C(=O)NO)cc3c2C)c1 [Compound 6e, (E)-N-Hydroxy-3-(6-methoxy-2-(3-methoxybenzoyl)-3-methylbenzofuran-5-yl)acrylamide]",,,
6.6 ± 0.96 nM,18.7 ± 0.72 nM,0.4 ± 0.04 nM,9.5 ± 0.7 nM,16.1 ± 0.01 nM,> 30 µM,14.1 ± 1 µM,69 ± 0.1%,> 30 µM,268 to 270 °C,> 30 µM,490 ± 100 nM,"COc1cc2oc(C(=O)c3cc(OC)c(OC)c(OC)c3)c(C)c2cc1C#CC(=O)NO [Compound 11a, N-Hydroxy-3-[6-methoxy-3-methyl-2-(3,4,5-trimethoxybenzoyl)-1-benzofuran-5-yl] prop-2-ynamide]",0.4 to 19 nM,,
